Measured values reported in the supplement of paper PMC7394473.

What was measured:
Conditions in all cases: 72 h
U2OS [1] = test: FV IC50 (concentration giving fractional viability 0.5); higher = less potent killing
Experimental: (§1)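 U2OS cells treated with full dose titrations of drug; live and dead cells counted by STACK microscopy (mKate2 nuclei, SYTOX Green) at 72 h, biological triplicates. GR and FV dose responses were fitted with 4-parameter logistic models (GR lower bound -1). GRADE (0-100) is the rescaled angle of a linear fit of FV versus GR at doses with GR >= 0, giving the percentage of the response due to cell death.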

U2OS [2] = test: drug GRADE (percent of response due to cell death) (% (0-100)); higher = more death-driven response
Experimental: as §1

U2OS [3] = test: normalized growth rate inhibition value (GR) relative to untreated cells (GR value (dimensionless, 1 = untreated growth)); higher = less growth inhibition
Experimental: (§2)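 U2OS::Nuc-mKate2 cells seeded in 96-well plates and treated with eight- to ten-point half-log or log dilutions of drug in the presence of 50 nM SYTOX Green. Live (mKate2+) and dead (SYTOX+) cells were counted by IncuCyte STACK live-cell microscopy at 72 h; biological triplicates. GR is the normalised growth-rate inhibition value (Hafner 2016; 1 = untreated growth, <0 = population shrinking). FV is live/(live+dead) cells, not normalised.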

U2OS [4] = test: fractional viability (live cells / total cells); higher = less cell death
Experimental: as §2

U2OS [5] = test: GR50 (concentration giving GR = 0.5)
Experimental: as §1

U2OS [6] = test: GRmin (fitted minimal GR value at highest effect) (GR value (dimensionless)); higher = less efficacious
Experimental: as §1

Row | Compound | FV IC50 (U2OS [1]) [µM] | drug GRADE (U2OS [2]) | normalized growth rate inhibition value (U2OS [3]; 0.01 µM) | normalized growth rate inhibition value (U2OS [3]; 0.0316 µM) | normalized growth rate inhibition value (U2OS [3]; 0.1 µM) | normalized growth rate inhibition value (U2OS [3]; 0.316 µM) | normalized growth rate inhibition value (U2OS [3]; 1 µM) | normalized growth rate inhibition value (U2OS [3]; 3.16 µM) | normalized growth rate inhibition value (U2OS [3]; 10 µM) | normalized growth rate inhibition value (U2OS [3]; 31.6 µM) | fractional viability (U2OS [4]; 0.01 µM) | fractional viability (U2OS [4]; 0.0316 µM) | fractional viability (U2OS [4]; 0.1 µM) | fractional viability (U2OS [4]; 0.316 µM) | fractional viability (U2OS [4]; 1 µM) | fractional viability (U2OS [4]; 3.16 µM) | fractional viability (U2OS [4]; 10 µM) | fractional viability (U2OS [4]; 31.6 µM) | GR50 (U2OS [5]) [µM] | GRmin (U2OS [6]) | normalized growth rate inhibition value (U2OS [3]; 0.00316 µM) | fractional viability (U2OS [4]; 0.00316 µM) | normalized growth rate inhibition value (U2OS [3]; 0.00100578 µM) | normalized growth rate inhibition value (U2OS [3]; 0.00317827 µM) | normalized growth rate inhibition value (U2OS [3]; 0.0100433 µM) | normalized growth rate inhibition value (U2OS [3]; 0.0317369 µM) | normalized growth rate inhibition value (U2OS [3]; 0.100289 µM) | normalized growth rate inhibition value (U2OS [3]; 0.316912 µM) | normalized growth rate inhibition value (U2OS [3]; 1.00144 µM) | normalized growth rate inhibition value (U2OS [3]; 3.16456 µM) | fractional viability (U2OS [4]; 0.00100578 µM) | fractional viability (U2OS [4]; 0.00317827 µM) | fractional viability (U2OS [4]; 0.0100433 µM) | fractional viability (U2OS [4]; 0.0317369 µM) | fractional viability (U2OS [4]; 0.100289 µM) | fractional viability (U2OS [4]; 0.316912 µM) | fractional viability (U2OS [4]; 1.00144 µM) | fractional viability (U2OS [4]; 3.16456 µM)
1 | CNc1ccc2oc(C[C@H]3O[C@@]4(CC[C@H]3C)O[C@H]([C@H](C)C(=O)c3ccc[nH]3)[C@H](C)C[C@H]4C)nc2c1C(=O)O | 8.33 | 23.9 | 1.02 | 1.01 | 0.913 | 0.846 | 0.612 | 0.31 | -0.171 | -0.602 | 0.982 | 0.983 | 0.976 | 0.97 | 0.959 | 0.848 | 0.418 | 0.0921 | 1.69 |  |  |  |  |  |  |  |  |  |  |  |  |  |  |  |  |  |  | 
2 | Cc1ccc(C(=O)N(CCCN)[C@@H](c2oc3cc(Cl)ccc3c(=O)c2Cc2ccccc2)C(C)C)cc1 | 2.85 | 53.2 | -0.165 | 0.0886 | -0.222 | 0.0837 | -0.166 | -0.182 | -0.945 | -0.883 | 0.758 | 0.808 | 0.764 | 0.827 | 0.782 | 0.436 | 0.0037 | 0.000513 |  | -0.9 | 0.205 | 0.855 |  |  |  |  |  |  |  |  |  |  |  |  |  |  |  | 
3 | CN(C)CC[C@H](CSc1ccccc1)Nc1ccc(S(=O)(=O)NC(=O)c2ccc(N3CCN(Cc4ccccc4-c4ccc(Cl)cc4)CC3)cc2)cc1[N+](=O)[O-] [ABT-737] | 6.86 | 65.6 |  |  |  |  |  |  | -0.162 |  |  |  |  |  |  |  | 0.407 |  | 2.13 |  |  |  | 0.92 | 1.02 | 1.02 | 0.95 | 0.94 | 0.817 | 0.744 | 0.358 | 0.986 | 0.984 | 0.983 | 0.982 | 0.954 | 0.913 | 0.82 | 0.684
4 | NC(=O)Nc1cc(-c2cccc(F)c2)sc1C(=O)N[C@H]1CCCNC1 [AZD7762] | 0.51 | 20 |  |  |  |  |  |  | -0.718 |  |  |  |  |  |  |  | 0.0629 |  | 0.11 | -0.614 |  |  | 1.04 | 1.04 | 1.19 | 1.12 | 0.423 | -0.126 | -0.318 | -0.622 | 0.991 | 0.992 | 0.992 | 0.988 | 0.894 | 0.548 | 0.398 | 0.0972
5 | CCN1CCN(Cc2ccc(Nc3ncc(F)c(-c4cc(F)c5nc(C)n(C(C)C)c5c4)n3)nc2)CC1 [Abemaciclib] | 3.61 | 17.3 |  |  |  |  |  |  | -0.928 |  |  |  |  |  |  |  | 0.0044 |  | 0.299 |  |  |  | 1.03 | 0.796 | 0.854 | 0.834 | 0.613 | 0.583 | -0.0282 | -0.2 | 0.99 | 0.992 | 0.993 | 0.992 | 0.986 | 0.986 | 0.82 | 0.615
6 | CC[C@@H]1C(=O)N(C)c2cnc(Nc3ccc(C(=O)NC4CCN(C)CC4)cc3OC)nc2N1C1CCCC1 [BI2536] | 0.0275 | 20.9 | -0.371 | -0.116 | -0.354 | -0.184 | -0.415 | -0.378 | -0.876 | -0.822 | 0.45 | 0.485 | 0.413 | 0.388 | 0.323 | 0.168 | 0.0141 | 0.00423 |  |  | 0.0188 | 0.517 |  |  |  |  |  |  |  |  |  |  |  |  |  |  |  | 
7 | O=C(NCCCNc1nc(Nc2cccc(NC(=O)N3CCCC3)c2)ncc1I)c1cccs1 [BX795] | 11.6 | 34.3 | 0.987 | 1.11 | 0.954 | 1.01 | 0.723 | -0.0493 | -0.146 | -0.574 | 0.982 | 0.975 | 0.974 | 0.971 | 0.94 | 0.716 | 0.661 | 0.102 | 1.46 | -0.438 |  |  |  |  |  |  |  |  |  |  |  |  |  |  |  |  |  | 
8 | O=C(/C=C/c1cccc(S(=O)(=O)Nc2ccccc2)c1)NO [Belinostat] | 0.93 | 63.3 | 0.939 | 0.975 | 0.836 | 0.498 | -0.0168 | -0.527 | -0.646 | -0.72 | 0.969 | 0.972 | 0.947 | 0.878 | 0.466 | 0.096 | 0.0497 | 0.0293 | 0.332 | -0.733 |  |  |  |  |  |  |  |  |  |  |  |  |  |  |  |  |  | 
